Calls of active or inactive are those of the source.
Legend:
[1] = Luminescence-based cell-based high throughput dose response assay to identify activators of the DAF-12 from the parasite S. stercoralis (ssDAF-12).; type: functional
[2] = Fluorescence-based cell-based high throughput dose response assay for inhibitors of the interaction of nucleotide-binding oligomerization domain containing 2 (NOD2) and the receptor-interacting serine-threonine kinase 2 (RIPK2).; type: functional, Homo sapiens; conditions: Homo sapiens
[3] = target: Neurotensin receptor type 1 (Homo sapiens, UniProt P30989); type: functional;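 also: Image-based confirmatory dose-response assay measuring agonist activity at NTR1; NTR1-expressing U2OS osteosarcoma cells imaged for beta-arrestin GFP spot formation; agonist potency where compounds increase beta-arrestin recruitment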
[4] = target: T1, Microphthalmia-associated transcription factor (Homo sapiens, UniProt O75030); test: TRPM1 promoter luciferase signal decrease, dose response, MITF inhibitor project, cell-based, SK-MEL-5, cherry-picked, set 3 (AID 493073); type: functional
T1 sequence (O75030 whole entry): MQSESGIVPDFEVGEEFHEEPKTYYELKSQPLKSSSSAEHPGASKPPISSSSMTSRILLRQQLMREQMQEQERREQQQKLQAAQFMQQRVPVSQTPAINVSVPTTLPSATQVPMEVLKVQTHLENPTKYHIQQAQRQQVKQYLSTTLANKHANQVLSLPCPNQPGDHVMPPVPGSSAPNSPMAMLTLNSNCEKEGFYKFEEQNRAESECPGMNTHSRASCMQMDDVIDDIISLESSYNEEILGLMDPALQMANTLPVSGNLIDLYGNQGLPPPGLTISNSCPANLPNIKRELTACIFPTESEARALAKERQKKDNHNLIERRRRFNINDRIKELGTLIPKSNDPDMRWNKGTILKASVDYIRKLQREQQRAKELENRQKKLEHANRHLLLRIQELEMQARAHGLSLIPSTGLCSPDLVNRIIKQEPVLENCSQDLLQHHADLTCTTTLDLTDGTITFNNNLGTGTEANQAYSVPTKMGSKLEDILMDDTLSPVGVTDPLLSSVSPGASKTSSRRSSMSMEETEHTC

Hexokinase = Hexokinase (Trypanosoma brucei, UniProt Q38C41); test: Confirmation assay for inhibitors of Trypanosoma brucei hexokinase 1-Analogue-first series. [Related pubchem assays (depositor defined):AID1430, AID1632, AID2516, AID2560, AID2579, AID2600, AID449725, AID492951]; type: functional
Hexokinase, sequence (Q38C41 whole entry): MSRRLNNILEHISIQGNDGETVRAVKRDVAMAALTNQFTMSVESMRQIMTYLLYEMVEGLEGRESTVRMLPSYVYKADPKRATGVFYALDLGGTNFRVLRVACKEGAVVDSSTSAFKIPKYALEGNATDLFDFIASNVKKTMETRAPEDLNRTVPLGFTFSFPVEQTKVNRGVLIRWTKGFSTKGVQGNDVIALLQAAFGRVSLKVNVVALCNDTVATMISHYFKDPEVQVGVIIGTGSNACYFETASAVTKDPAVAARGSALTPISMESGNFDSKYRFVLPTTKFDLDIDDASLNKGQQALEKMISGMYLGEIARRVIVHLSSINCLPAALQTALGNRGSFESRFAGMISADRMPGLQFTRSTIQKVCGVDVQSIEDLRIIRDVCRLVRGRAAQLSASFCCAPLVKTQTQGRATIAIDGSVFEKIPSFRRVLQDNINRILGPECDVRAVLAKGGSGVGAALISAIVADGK

[5] = target: G-protein coupled receptor 55 (Homo sapiens, UniProt Q9Y2T6); test: GPR55 agonists via beta-arrestin recruitment, primary screen, imaging, U2OS cells, beta-arrestin-GFP redistribution (AID 1961); type: functional
G-protein coupled receptor 55, sequence (Q9Y2T6 whole entry): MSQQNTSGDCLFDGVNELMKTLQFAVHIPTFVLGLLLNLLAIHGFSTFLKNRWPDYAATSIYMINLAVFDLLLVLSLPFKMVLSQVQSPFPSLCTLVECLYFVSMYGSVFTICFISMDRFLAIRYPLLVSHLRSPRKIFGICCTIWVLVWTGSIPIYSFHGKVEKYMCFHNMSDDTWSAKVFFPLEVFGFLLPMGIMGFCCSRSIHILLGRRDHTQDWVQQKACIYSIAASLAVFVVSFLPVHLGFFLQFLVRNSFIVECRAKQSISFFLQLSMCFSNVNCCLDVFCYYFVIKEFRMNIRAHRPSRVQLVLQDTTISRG

Cytochrome P450 3A4 [6] = target: T2, Cytochrome P450 3A4 (Homo sapiens, UniProt P08684); conditions: Potency
T2 sequence (P08684 whole entry): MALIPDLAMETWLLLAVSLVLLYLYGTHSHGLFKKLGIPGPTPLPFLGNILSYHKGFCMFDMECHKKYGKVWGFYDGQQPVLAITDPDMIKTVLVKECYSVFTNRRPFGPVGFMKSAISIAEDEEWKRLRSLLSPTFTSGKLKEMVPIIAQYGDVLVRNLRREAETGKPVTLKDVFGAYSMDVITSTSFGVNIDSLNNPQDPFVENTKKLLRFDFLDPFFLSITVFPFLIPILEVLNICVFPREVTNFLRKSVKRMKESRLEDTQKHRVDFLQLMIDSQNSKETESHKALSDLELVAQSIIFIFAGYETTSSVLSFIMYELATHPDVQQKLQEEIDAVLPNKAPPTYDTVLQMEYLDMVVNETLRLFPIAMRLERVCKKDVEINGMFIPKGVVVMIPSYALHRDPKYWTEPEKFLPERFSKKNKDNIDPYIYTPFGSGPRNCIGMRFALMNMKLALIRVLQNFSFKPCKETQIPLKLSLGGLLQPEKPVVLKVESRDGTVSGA

Prothrombin = Prothrombin (Homo sapiens, UniProt P00734); test: Thrombin 1536 HTS Dose Response Confirmation. [Related pubchem assays: 1046 (Thrombin 1536 HTS; hits were confirmed in this assay)]; type: functional
[7] = M. tuberculosis H37Rv growth inhibitors, H37Rv strain (AID 1626); type: functional
Large T antigen = Large T antigen (Simian virus 40, UniProt P03070); type: functional, Betapolyomavirus macacae;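 also: Confirmatory-stage PubChem screen for compounds that inhibit SV40 T antigen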
Large T antigen, sequence (P03070 whole entry): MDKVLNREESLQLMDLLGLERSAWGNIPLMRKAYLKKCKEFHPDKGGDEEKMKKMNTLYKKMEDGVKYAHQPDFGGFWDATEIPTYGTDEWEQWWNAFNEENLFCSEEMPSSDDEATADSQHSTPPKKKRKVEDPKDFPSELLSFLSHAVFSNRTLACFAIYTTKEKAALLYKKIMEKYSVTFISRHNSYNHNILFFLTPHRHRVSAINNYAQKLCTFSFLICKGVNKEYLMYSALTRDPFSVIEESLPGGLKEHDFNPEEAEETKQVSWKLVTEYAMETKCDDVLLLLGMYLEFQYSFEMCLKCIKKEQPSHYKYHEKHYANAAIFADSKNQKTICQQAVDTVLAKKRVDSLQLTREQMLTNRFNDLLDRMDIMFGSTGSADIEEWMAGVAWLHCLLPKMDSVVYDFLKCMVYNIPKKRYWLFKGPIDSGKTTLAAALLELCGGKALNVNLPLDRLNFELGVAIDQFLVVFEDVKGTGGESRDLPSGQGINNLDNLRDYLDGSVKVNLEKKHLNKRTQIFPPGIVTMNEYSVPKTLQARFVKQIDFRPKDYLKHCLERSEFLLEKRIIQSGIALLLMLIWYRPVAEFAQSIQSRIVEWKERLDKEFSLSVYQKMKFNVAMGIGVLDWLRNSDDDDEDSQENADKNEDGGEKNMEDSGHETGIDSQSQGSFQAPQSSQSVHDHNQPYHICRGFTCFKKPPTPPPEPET

[8] = target: FAD-linked sulfhydryl oxidase ALR (Homo sapiens, UniProt P55789); test: inhibitors of human ALR sulfhydryl oxidase, dose response, biochemical, H2O2 detection, luminescence, cherry-pick (AID 493248)
HeLa = test: HeLa cell cytotoxicity, dose response, cytotoxicity control, 24 h, cherry-picked samples (AID 504726); type: functional, cell-based; conditions: Homo sapiens;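 also: potency for cytotoxicity as loss of luminescence signal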
HEK293 [9] = test: cells; type: functional, cell-based; conditions: Homo sapiens
HEK293 [10] = test: cells; type: functional, cell-based; conditions: Homo sapiens; remark: listed apart in the source
HEK293 [11] = test: NOD1 signaling inhibitors, primary screen, cell-based, luminescence, uHTS (AID 1578); type: functional; conditions: Homo sapiens
HEK293 [12] = test: NOD2 signaling inhibitors in MDP-stimulated cells, cell-based, uHTS, luminescence (AID 2001); type: functional; conditions: Homo sapiens
HEK293 [13] = test: cells; type: functional, cell-based; conditions: Homo sapiens; remark: listed apart in the source
[14] = target: Nucleotide-binding oligomerization domain-containing protein 2 (Homo sapiens, UniProt Q9HC29); test: NOD2 signaling inhibitors, cell-based, luminescence, uHTS, HEK293 (AID 1566); type: functional
Nucleotide-binding oligomerization domain-containing protein 2, sequence (Q9HC29 whole entry, the tested form may be a part): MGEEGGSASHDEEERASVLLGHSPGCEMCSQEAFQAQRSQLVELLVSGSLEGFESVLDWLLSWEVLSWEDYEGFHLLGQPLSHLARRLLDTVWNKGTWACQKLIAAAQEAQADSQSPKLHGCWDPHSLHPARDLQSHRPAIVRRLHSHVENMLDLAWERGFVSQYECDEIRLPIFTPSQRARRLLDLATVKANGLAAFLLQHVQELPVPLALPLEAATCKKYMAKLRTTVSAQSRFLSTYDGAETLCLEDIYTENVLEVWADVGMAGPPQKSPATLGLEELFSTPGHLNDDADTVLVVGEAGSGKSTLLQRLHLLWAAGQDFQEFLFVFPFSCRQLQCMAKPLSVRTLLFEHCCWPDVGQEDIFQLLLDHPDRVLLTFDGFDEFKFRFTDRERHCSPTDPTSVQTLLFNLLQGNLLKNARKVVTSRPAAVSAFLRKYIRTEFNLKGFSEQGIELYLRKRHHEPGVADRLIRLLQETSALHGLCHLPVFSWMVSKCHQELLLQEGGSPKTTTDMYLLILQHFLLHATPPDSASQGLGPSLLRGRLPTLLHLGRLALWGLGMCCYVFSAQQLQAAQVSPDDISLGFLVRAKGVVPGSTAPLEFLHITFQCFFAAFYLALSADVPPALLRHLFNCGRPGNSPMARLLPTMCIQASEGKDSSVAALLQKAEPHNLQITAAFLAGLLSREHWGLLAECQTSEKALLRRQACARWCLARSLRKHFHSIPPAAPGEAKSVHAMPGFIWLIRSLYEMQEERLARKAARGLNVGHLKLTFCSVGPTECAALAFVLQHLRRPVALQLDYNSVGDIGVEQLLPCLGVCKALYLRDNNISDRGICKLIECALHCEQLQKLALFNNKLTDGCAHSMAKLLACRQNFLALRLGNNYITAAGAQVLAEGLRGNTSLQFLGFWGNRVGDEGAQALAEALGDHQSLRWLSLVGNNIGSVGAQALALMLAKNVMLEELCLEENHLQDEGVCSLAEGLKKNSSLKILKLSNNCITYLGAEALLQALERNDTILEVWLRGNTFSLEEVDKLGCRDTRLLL

[15] = target: Acyl-homoserine lactone acylase PvdQ (Pseudomonas aeruginosa (strain LESB58), UniProt Q9I194); test: P. aeruginosa PvdQ acylase inhibitors, dose response, biochemical, fluorescence, plate reader and imaging, cherry-picks (AID 493231)
Acyl-homoserine lactone acylase PvdQ, sequence (Q9I194 24-193 limits assumed): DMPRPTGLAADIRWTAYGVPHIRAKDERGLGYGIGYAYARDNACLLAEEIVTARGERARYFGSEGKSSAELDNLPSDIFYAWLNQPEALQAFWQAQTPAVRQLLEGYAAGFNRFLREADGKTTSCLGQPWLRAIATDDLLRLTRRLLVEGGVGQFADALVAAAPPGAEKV
Acyl-homoserine lactone acylase PvdQ, sequence (Q9I194 217-762 limits assumed): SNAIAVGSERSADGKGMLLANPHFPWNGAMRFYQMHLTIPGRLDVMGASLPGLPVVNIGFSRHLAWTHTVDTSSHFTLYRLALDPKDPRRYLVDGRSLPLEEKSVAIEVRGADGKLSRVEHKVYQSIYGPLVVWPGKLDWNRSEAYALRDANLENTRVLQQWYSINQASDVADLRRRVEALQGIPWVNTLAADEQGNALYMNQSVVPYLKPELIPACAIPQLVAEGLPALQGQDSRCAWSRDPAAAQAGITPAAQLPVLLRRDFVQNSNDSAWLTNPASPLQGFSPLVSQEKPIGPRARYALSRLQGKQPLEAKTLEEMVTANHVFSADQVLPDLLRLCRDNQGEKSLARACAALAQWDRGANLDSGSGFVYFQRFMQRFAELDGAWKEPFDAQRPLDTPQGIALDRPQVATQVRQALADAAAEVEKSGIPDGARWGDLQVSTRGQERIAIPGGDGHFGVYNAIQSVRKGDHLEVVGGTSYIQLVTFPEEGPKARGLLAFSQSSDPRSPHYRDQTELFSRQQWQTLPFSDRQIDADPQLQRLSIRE

[16] = target: T3, Alkaline phosphatase, tissue-nonspecific isozyme (Homo sapiens, UniProt P05186)
T3 sequence (P05186 whole entry): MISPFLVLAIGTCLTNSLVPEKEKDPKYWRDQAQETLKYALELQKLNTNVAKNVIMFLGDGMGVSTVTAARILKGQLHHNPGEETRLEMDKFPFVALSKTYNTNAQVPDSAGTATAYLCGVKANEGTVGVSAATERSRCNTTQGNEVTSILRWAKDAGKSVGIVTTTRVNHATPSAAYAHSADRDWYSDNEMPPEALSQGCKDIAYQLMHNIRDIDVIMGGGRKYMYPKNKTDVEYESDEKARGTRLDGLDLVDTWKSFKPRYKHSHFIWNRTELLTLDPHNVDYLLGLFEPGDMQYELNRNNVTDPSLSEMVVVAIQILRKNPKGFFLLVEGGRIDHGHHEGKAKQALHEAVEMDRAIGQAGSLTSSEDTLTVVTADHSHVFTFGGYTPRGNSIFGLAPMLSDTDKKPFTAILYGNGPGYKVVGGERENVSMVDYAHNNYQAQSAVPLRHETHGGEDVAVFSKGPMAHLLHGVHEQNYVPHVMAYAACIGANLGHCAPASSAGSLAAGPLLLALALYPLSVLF

Bcl-2-like protein 10 = Bcl-2-like protein 10 (Homo sapiens, UniProt Q9HD36); test: displacers of TR3 peptide from Bcl-B, primary screen, selectivity assay for Bfl-1 inhibitor project, biochemical, fluorescence polarization, FITC-TR3 peptide (AID 748);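 also: fluorescence polarization from a fluorescein-labelled TR3 peptide binding purified Bcl-B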
[17] = inhibitors of intracellular T. cruzi replication, confirmation, NIH3T3 host cells, beta-gal luminescence (AID 2044); type: functional, cell-based;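 also: intracellular parasites grown in NIH/3T3 mouse fibroblasts as host cells; luminescent beta-galactosidase reporter signal from transgenic T. cruzi replicating inside host cells; inhibitors lower the luminescence signal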
[18] = cytotoxicity toward NIH3T3 fibroblasts, dose response, counter-screen, cell-based, ATP luminescence, mouse fibroblasts (AID 2010); type: functional;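 also: cells exposed to compound for about 90 hours before reading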
Vero = test: host cell cytotoxicity of antiviral hits, dose response, cytotoxicity control for West Nile virus antiviral project, secondary assay (AID 1650); type: functional; conditions: Chlorocebus sabaeus
[19] = target: T4, Corticotropin-releasing factor receptor 2/Corticotropin-releasing factor-binding protein (Homo sapiens, UniProt P24387+Q13324); test: activators of CRF receptor 2 with binding protein – uHTS hits, confirmation (AID 602473); type: functional; conditions: read-out: EC50_Mean
T4 sequence (Q13324 whole entry): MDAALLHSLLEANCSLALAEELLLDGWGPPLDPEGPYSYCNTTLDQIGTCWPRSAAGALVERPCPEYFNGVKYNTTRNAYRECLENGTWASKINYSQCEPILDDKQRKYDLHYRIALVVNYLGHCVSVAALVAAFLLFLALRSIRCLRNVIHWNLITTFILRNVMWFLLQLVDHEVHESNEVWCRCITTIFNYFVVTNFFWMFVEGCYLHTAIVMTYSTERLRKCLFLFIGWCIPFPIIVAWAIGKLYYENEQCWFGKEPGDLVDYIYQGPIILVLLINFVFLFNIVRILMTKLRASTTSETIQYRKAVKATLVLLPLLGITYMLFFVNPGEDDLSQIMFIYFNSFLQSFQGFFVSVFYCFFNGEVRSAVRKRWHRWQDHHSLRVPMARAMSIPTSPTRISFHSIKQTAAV
T4 sequence (P24387 whole entry): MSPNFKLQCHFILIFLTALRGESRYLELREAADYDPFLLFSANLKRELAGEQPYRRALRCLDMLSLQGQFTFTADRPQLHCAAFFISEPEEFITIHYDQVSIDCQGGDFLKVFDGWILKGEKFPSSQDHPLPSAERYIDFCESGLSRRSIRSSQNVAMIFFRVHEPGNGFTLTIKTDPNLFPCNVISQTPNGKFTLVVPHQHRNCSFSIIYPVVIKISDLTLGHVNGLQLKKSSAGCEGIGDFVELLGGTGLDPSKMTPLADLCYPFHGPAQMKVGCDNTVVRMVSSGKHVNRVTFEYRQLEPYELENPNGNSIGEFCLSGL

[20] = target: T4, Corticotropin-releasing factor receptor 2/Corticotropin-releasing factor-binding protein; test: Dose Response confirmation of uHTS hits for small molecule antagonists of the CRF-binding protein and CRF-R2 receptor complex.; type: functional; conditions: read-out: IC50_Mean
[21] = target: Voltage-gated N-type calcium channel alpha-1B subunit/Amyloid beta A4 precursor protein-binding family A member 1 (Homo sapiens, UniProt Q00975+Q02410); test: disruptors of Mint-PDZ/N-type channel peptide interaction – biochemical, HTRF, set 2, SAR follow-up (AID 434980); type: functional
Cytochrome P450 3A4 [22] = target: T2, Cytochrome P450 3A4
Cytochrome P450 2D6 = Cytochrome P450 2D6 (Homo sapiens, UniProt P10635);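 also: CYP2D6 member of a cytochrome P450 panel assay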
[23] = target: Female germline-specific tumor suppressor gld-1 (Caenorhabditis elegans, UniProt Q17339); test: inhibitors of GLD-1 binding to TGE RNA, dose response, biochemical, fluorescence polarization, C. elegans (AID 2802);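 also: fluorescence polarization of labeled TGE RNA bound by purified gld-1 protein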
Female germline-specific tumor suppressor gld-1, sequence (Q17339 whole entry): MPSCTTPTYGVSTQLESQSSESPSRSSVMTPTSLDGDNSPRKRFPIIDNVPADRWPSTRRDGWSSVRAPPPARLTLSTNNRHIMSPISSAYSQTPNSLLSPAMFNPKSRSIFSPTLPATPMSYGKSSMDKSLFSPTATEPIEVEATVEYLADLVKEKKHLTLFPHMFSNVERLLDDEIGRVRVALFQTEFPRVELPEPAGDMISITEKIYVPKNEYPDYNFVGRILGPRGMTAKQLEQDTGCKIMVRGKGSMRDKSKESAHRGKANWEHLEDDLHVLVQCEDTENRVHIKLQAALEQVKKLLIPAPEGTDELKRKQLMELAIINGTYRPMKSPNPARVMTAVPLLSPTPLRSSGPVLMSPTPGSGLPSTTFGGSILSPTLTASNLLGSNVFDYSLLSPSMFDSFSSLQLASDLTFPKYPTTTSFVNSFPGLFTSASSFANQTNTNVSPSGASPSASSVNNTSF

Protein Rev = Protein Rev (Human immunodeficiency virus type 1 group M subtype B (isolate HXB2)(HIV-1), UniProt P04618); test: inhibitors of Rev binding to RRE RNA, dose response, biochemical, fluorescence polarization, HIV-1 (AID 434976); design: species or system Human immunodeficiency virus 1
Protein Rev, sequence (P04618 whole entry): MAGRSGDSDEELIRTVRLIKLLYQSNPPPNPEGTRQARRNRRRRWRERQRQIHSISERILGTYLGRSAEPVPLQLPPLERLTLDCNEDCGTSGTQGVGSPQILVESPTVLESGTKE

cells [24] = type: functional, cell-based
cells [25] = type: functional, cell-based; remark: listed apart in the source
[26] = target: T5, Polyadenylate-binding protein 1 (Homo sapiens, UniProt P11940); test: PABP1 MLLE–PAM2 interaction inhibitors, dose response, miRNA deadenylation inhibitor project, biochemical, fluorescence polarization, Cy5-PAM2 peptide, secondary (AID 602260); type: functional; conditions: read-out: IC50_Mean
T5 sequence (P11940 whole entry): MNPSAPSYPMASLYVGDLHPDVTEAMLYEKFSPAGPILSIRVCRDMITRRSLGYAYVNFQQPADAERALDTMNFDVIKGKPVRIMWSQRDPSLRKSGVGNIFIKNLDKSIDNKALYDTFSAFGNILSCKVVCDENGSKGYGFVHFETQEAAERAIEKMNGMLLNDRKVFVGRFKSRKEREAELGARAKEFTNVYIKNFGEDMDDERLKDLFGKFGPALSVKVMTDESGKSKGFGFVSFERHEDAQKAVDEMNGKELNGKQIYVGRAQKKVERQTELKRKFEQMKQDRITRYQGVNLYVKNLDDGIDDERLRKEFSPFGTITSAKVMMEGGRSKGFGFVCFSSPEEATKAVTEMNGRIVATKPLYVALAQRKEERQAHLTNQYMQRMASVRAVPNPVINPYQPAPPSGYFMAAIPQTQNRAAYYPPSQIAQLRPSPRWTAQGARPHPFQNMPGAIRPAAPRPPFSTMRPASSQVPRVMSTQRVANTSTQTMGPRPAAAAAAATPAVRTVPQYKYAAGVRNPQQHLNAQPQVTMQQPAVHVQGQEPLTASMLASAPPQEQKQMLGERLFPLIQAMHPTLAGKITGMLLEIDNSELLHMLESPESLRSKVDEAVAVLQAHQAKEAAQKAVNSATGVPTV

[27] = target: T5, Polyadenylate-binding protein 1; test: PABP1 MLLE–PAM2 binding inhibitor potency, dose response, biochemical, fluorescence polarization, FITC-PAM2 peptide (AID 602259); type: functional; conditions: read-out: IC50_Mean

## Cc1cc(N2CCOCC2)ccc1/C=C\[N+](=O)[O-]
[1]
  IC50: > 67.5 µM (inactive)
[2]
  IC50: 4.34 µM (active)
[3]
  EC50: 22.4 µM (inactive)
[4]
  AC50: 22.5 µM (active)

## COc1ccc(NC(=O)Cn2sc3ccccc3c2=O)cc1
Hexokinase
  IC50: 5.63 µM (active)

## O=C(/C=C/c1cccc(Br)c1)c1ccc2c(c1)OCO2
[5]
  EC50: 4.03 µM (active)

## CC(=O)O[C@](C)(CCC=C(C)C)C1CC=C(C)CC1 (some centres undefined)
Cytochrome P450 3A4 [6]
  AC50: 31.6 µM (inconclusive)

## COc1ccc2ncc(OC(C)=O)cc2c1
Prothrombin
  IC50: 3.24 µM (active)
[7]
  IC50: > 100 µM (active)

## COc1cc(/C=N/NC(=O)c2cccs2)ccc1O
Large T antigen
  IC50: 5.62 µM (active)
[8]
  AC50: 1.65 µM (active)

## O=C(Cn1sc2ccccc2c1=O)Nc1cccc(F)c1
Hexokinase
  IC50: 4.78 µM (active)

## CN(C)c1ccc(/C=C/C(=O)c2ccc(O)cc2)cc1[N+](=O)[O-]
HeLa
  AC50: 51.7 µM (active)

## Cc1nc(N2CCN(C(=O)COc3ccccc3)CC2)c2c(C)c(C)sc2n1
HEK293 [9]
  IC50: 11.9 µM (active)
HEK293 [10]
  IC50: 5.32 µM (active)
HEK293 [11]
  EC50: 5.68 µM (active)
HEK293 [12]
  IC50: 5.95 µM (active)
HEK293 [13]
  IC50: > 20 µM (inactive)
[14]
  EC50: 7.34 µM (active)

## O=CNC1(c2ccccc2)CCCCC1
[15]
  AC50: 1.96 µM (active)

## COC(=O)c1ccc(OC(=O)c2ccco2)cc1
[15]
  AC50: 1.99 µM (active)

## Cc1ccc(/C=N/Nc2cccc3cccnc23)c(O)c1
[16]
  EC50: > 100 µM (not active)

## COC(=O)c1ccc(C23CC4(C2)[C@H](CN(C)[C@@H]4c2ccccc2)C3c2ccc(Cl)nc2)cc1 (some centres undefined)
Cytochrome P450 3A4 [6]
  AC50: 20 µM (inconclusive)

## CC(C)CC1=NN2C(=N)/C(=C\c3coc4ccccc4c3=O)C(=O)N=C2S1
Large T antigen
  IC50: 18.3 µM (active)

## CCN(c1ccccc1)S(=O)(=O)c1ccc(C(=O)N(CCN(C)C)c2nc3c(F)cc(F)cc3s2)cc1
[5]
  EC50: > 32 µM (inactive)

## Cc1ccc(CNc2ccc3c(c2)OCO3)cc1
Bcl-2-like protein 10
  IC50: > 3.13 µM (inactive)
[17]
  EC50: 1.52 µM (active)
[18]
  EC50: > 60 µM (not active)

## COC(=O)C1C(c2ccccc2)C(C(=O)OCc2ccco2)C1c1ccccc1 (centres undefined)
Vero
  CC50: 30.1 µM (active)
[19]
  EC50: > 53 µM (inactive)
[20]
  IC50: > 47.1 µM (inactive)

## COc1ccccc1N1CCN(C(=O)c2cc(-c3ccco3)nc3ccccc23)CC1
[21]
  IC50: > 56.8 µM (inactive)

## Cc1cc([N+](=O)[O-])nn1CC(=O)NN=C(S)Nc1ccc(F)cc1
Cytochrome P450 3A4 [22]
  AC50: 22.4 µM (inconclusive)
Cytochrome P450 2D6
  AC50: 0.00562 µM (inconclusive)
[16]
  EC50: 55.5 µM (not active)

## COc1ccc(NC(=O)Cc2ccccc2)cn1
[23]
  IC50: 15.1 µM (inactive)
Protein Rev
  IC50: > 25.2 µM (not active)

## COc1ccc(/N=C2/C(=O)N3CCCc4cccc2c43)cc1
Cells [24]
  EC50: > 350 µM (not active)
[7]
  IC50: > 100 µM (active)
Cells [25]
  EC50: > 350 µM (not active)

## CCOC(=O)c1cc2c(ccn2C)n1CC(=O)N(Cc1ccccc1)c1ccccc1
[23]
  IC50: > 6.62 µM (active)
Protein Rev
  IC50: > 75.4 µM (not active)
[26]
  IC50: > 66 µM (inactive)
[27]
  IC50: > 66 µM (inactive)

Source: ChEMBL document CHEMBL1201862, “PubChem BioAssay data set” (2004)
